These results are taken from PubChem BioAssay AID651555 (The Scripps Research Institute Molecular Screening Center, 2012).

This assay deals with Melanocortin receptor 4 (Homo sapiens) (UniProt P32245). The assay is described as follows: activators of MC4R arrestin recruitment – cell-based, luminescence, agonists, late-stage follow-up (AID 651555). Conditions: U2OS MC4R beta-arrestin recruitment, beta-gal luminescence.

Activity calls are given as the source filed them.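 How the source made its calls: active means compounds whose half-maximal activation potency EC50 is 10 µM or stronger; inactive means the rest.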

Sequence of Melanocortin receptor 4 (Homo sapiens) (P32245 whole entry, looked up): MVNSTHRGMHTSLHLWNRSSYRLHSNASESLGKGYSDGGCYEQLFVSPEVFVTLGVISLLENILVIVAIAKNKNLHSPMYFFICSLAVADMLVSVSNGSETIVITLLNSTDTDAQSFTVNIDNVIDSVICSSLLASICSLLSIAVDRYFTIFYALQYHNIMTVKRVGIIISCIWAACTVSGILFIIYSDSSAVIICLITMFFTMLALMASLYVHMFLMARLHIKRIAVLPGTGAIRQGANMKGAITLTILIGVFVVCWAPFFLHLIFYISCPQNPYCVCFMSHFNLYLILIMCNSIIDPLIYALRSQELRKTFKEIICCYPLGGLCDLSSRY

Consider `CC1CCCCN1S(=O)(=O)c1ccc(NC(=O)c2nc(S(C)(=O)=O)ncc2Cl)cc1` (stereo not drawn), for which the EC50 – broadly, the concentration giving half of the maximal effect – was > 50 µM (inactive). As for `CNC(=O)c1cc(Oc2ccc(NC(=O)Nc3ccc(Cl)c(C(F)(F)F)c3)cc2)ccn1`, the EC50 was > 50 µM (inactive). As for `CCC1CCCCN1S(=O)(=O)c1ccc(NC(=O)c2cccc(S(C)(=O)=O)c2)cc1` (stereo not drawn), the figure is > 50 µM (inactive); as for `OC(COc1ccc2ccccc2c1)CN1CCC(Nc2nc3ccccc3o2)CC1` (stereo not drawn), > 50 µM (inactive). As for `CC(=O)Nc1cc(-c2ccc(N(C)C)cc2)cn2c(-c3ccc(F)cc3)cnc12`, the figure is > 50 µM (inactive). The figure for `COc1ccc(N(C(C)=O)C(C(=O)NC2CCCC2)c2cccs2)cc1OC` (stereo not drawn) is > 50 µM (inactive); for `CCC1CCCCN1S(=O)(=O)c1ccc(NC(=O)c2ccnc(SC)n2)cc1` (stereo not drawn) it is > 50 µM (inactive).

On to `Cc1ccccc1OCC(O)CN1CCC(CN2C(=O)c3cccc4cccc(c34)C2=O)CC1` (stereo not drawn), for which the EC50 is > 50 µM (inactive). For the molecule `CCOC(=O)C1(c2ccccc2)CCN(CC(O)COc2ccc3ccccc3c2)CC1` (stereo not drawn), the EC50 is > 50 µM (inactive). `O=c1[nH]c2ccccc2n1C1CCN(CC(O)COc2ccc3ccccc3c2)CC1` (stereo not drawn): the EC50 is > 50 µM (inactive). The figure for `CNC(=O)c1cc(Oc2ccc(NC(=O)CNc3ccc(Cl)c(C(F)(F)F)c3)cc2)ccn1` is > 50 µM (inactive); for `C#CC(=O)N(c1ccc(OC)c(OC)c1)C(C(=O)NC1CCCC1)c1cccs1` (stereo not drawn) it is > 50 µM (inactive); for `CC(=O)Nc1cc(-c2ccc(N(C)C)cc2)cn2c(-c3ccc(F)c(Cl)c3)cnc12` it is > 50 µM (inactive). The figure for `Cc1ccccc1CN1Cc2cnnn2-c2ccccc2C1C#N` (stereo not drawn) is > 50 µM (inactive). Consider `CNC(=O)c1cc(Oc2ccc(NCC(=O)Nc3ccc(Cl)c(C(F)(F)F)c3)cc2)ccn1`, for which the EC50 was > 50 µM (inactive). The figure for `CC(=O)c1ccc(Nc2nc3ccc(C(=O)N(CCC(C)C)CCC(C)C)cc3n2CCCN2CCCCC2)cc1` is > 50 µM (inactive); for `COc1ccccc1C1(CCNC(C)c2cccs2)CCOC(C(C)C)C1` (stereo not drawn) it is > 50 µM (inactive).

Turning to `CCC1CCCCN1S(=O)(=O)c1ccc(NC(=O)c2ccccc2)cc1` (stereo not drawn), the EC50 result is “inactive”.

As for `CC(=O)Nc1cc(-c2ccc(N(C)C)cc2)cn2c(-c3ccc(F)c(F)c3)cnc12`, the EC50 was > 50 µM (inactive).

As for `O=C1c2cccc3cccc(c23)C(=O)N1CC1CCN(CC(O)COc2ccc3ccccc3c2)CC1` (stereo not drawn), the EC50 entry was “inactive”. As for `O=C1c2cccc3cccc(c23)C(=O)N1CC1CCN(CC(O)COc2ccccc2)CC1` (stereo not drawn), the EC50 is > 50 µM (inactive). Turning to `CC(=O)N(C)c1cc(-c2ccc(N(C)C)cc2)cn2c(-c3ccc(F)c(Cl)c3)cnc12`, the EC50 is > 50 µM (inactive). The figure for `CCC1CCCCN1S(=O)(=O)c1ccc(NC(=O)c2nc(S(C)(=O)=O)ncc2Cl)cc1` (stereo not drawn) is > 50 µM (inactive).
